row,melting point [°C],Structure (SMILES)
1,205 to 209,CCCN(CCC)C(=O)c1cc(C(=O)N[C@@H](Cc2ccccc2)[C@H](O)CNCc2cccc(OC)c2)cc(-c2ccc(OC)cc2)c1.Cl
2,230 to 233,CCCN(CCC)C(=O)c1cc(C(=O)N[C@@H](Cc2cc(F)cc(F)c2)[C@H](O)CNCc2cccc(OC)c2)cc(-c2ccccc2)c1.Cl
3,214 to 219,CCCN(CCC)C(=O)c1cc(C(=O)N[C@@H](Cc2ccccc2)[C@H](O)CNCc2cccc(OC)c2)cc(-c2ccccc2)c1.Cl
4,199 to 201,CCCN(CCC)C(=O)c1cc(C(=O)N[C@@H](Cc2ccccc2)[C@H](O)CNCc2cccc(OC)c2)cc(-c2ccsc2)c1.Cl

# Source: US7214715B2, “Compounds to treat Alzheimer's disease” (Pharmacia & Upjohn, priority 2000, dated 2007)
